Assay results from US7285528B2, “Agonists and antagonists of gonadotropin-releasing hormone-2, and use thereof” (priority 2002, dated 2007).
Where a SMILES comes first, the peptide text is derived from it. [ ]: non-standard residue; d: D form. pGlu = O=C1CC[C@@H](C(=O)O)N1

Experiments:
Primate GnRH-2 receptor = test: c-fos-luc luciferase activation by agonists, CV-1 cells expressing Primate GnRH-2 receptor; format: cell-based, Primates; details: luciferase activation; for Log EC50: log of EC50 (negative values); for Log EC50 / Emax (fold-induction): average of three independent experiments; for Ratio of EC50 values based on EC50 value of GnRH-2: GnRH-2 = 1
Method: Complimentary DNA (cDNA) for a Primate GnRH-2 receptor was obtained from a CV-1 cell genome. […] Plasmids having Primate GnRH-2 receptors where transfected into CV-1 cells. To assay the activity of the receptor, c-fos-luc where a luciferase gene is fused with a c-fos promoter was co-transfected as a probe gene. After 48 hours from transfection, the cells were treated with GnRH-2 agonists and then the activity of luciferase was assayed (Seong et al., Endocrinology vol 144 2003, 454-466). […] Of the GnRH-2 receptors, [[…]]GnRH-2 performed excellently, showing effects about 3 times that of a wild-type ligand, GnRH-2. […] When analogs where the 5th, 7th, and 8th amino acids of [[…]]GnRH-2 are substituted were used, it was observed that their effects were weaker than [[…]]GnRH-2, and therefore it can be seen that it is important to maintain His, Trp, and Tyr that are found at the 5th, 7th, and 8th positions of GnRH-2 as they are (FIG. 3b). Log EC50 values and Emax values of GnRH-2 agonists are average values of experiments that were conducted independently three times. Ratio^a represents the ratio of EC50 values of other GnRH analogs based on EC50 values of GnRH-2.

bfGnRHR-3 [1] = test: Ligand-receptor binding assay, I125-GnRH-2 competition, membranes of GH3 cells expressing bfGnRHR-3; parameters: species or system bullfrog; details: log of IC50 (negative values); competition with I125-GnRH-2, 4° C., 16 hours
Method: To determine the binding affinity between GnRH and GnRH receptors, GnRH-2 was radiolabeled with I^125. The GH3 cells expressing bfGnRHR-1, bfGnRHR-2, bfGnRHR-3, and rat GnRHR constructed in Example 2-3 above were cultured on 100-mm dishes. After 48 hours, the cells were homogenized to obtain cellular membranes, which were then dissolved in binding buffer (40 mM Tris, pH 7.4, 2 mM MgCl2). 20 μg of membrane proteins were reacted with I^125-GnRH-2 at 4° C. for 16 hours. […] After the reaction was completed, 1^125-GnRH-2 bound to the receptors was filtered using a Brandel harvester, and cpm was measured using a γ-counter.
The GH3 cells expressing bfGnRHR-3 obtained from Example 6-1 above were treated with l^125GnRH-2 and GnRH-2 agonists and antagonists at various concentrations to determine the binding affinity of GnRH-2 agonists and antagonists toward the receptors.

rat GnRHR = target: T1, rat GnRHR (Rattus norvegicus, UniProt P30969); test: Inositol phosphate (IP) production, GH3 cells expressing rat GnRHR; format: cell-based; details: for sensitivity compared with GnRH-1: rat GnRHR
T1 construct: expressed in transfected cells; host or cells: GH3 cells, retrovirus-mediated infection
T1 sequence (P30969 1-327): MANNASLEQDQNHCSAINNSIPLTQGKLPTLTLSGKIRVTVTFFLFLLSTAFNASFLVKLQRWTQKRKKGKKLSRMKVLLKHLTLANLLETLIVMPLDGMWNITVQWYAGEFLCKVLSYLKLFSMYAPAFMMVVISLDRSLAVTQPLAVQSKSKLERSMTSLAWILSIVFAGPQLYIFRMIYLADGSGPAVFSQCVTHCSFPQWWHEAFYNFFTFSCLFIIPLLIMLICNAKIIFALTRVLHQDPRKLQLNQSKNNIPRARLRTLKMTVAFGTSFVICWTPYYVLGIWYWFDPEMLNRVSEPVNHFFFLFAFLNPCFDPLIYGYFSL
Source text: The GnRH receptor, a membrane protein connected with the G protein, activates the G protein when activated by a ligand, and the activated G protein activates phospholipase C and thereby the synthesis of inositol phosphate (IP), which is the second transmitter in cells, is increased. Based on this principle, the activity of a receptor can be investigated by measuring the amount of IP within cells. GH3 cell lines were obtained from the Cell Line Bank at the Cancer Research Center, Seoul National University College of Medicine, located in Seoul, Republic of Korea. The GH3 cell lines were infected with retroviruses comprising genes encoding […]-2, and bfGnRHR-3 which are bullfrog GnRH receptors, and rat GnRHR, and cell lines expressing each of these receptors were obtained. The GH3 cells expressing […]-3, and rat GnRHR were cultured on 12-well plates. After 24 hours, the cells were cultured again for 24 hours in a media containing no inositol, to which H^3-myoinositol was added. […] Thereafter, they were treated with GnRH having a suitable concentration, cultured at 37° C. for another 30 minutes, and then the media was eliminated. The cells were treated with 10 mM of ice-cold formic acid to terminate the reaction, and the cell extracts were mixed with Dowex anionic exchange resins. These resins were washed with distilled water, IP was extracted with 1 M ammonium formate/0.1 M formic acid, and cpm (count per minute) was determined. The GH3 cell lines were infected with retroviruses comprising genes encoding […]-2, and bfGnRHR-3 which are bullfrog GnRH receptors, and rat GnRHR, and cell lines expressing each of these receptors were obtained.

TSU-Pri cells = test: Binding of radiolabeled GnRH to TSU-Pri prostate cancer cells and competition; parameters: species or system human; details: for reduction of radiolabeled GnRH-2 binding to TSU-Pri cells by unradiolabeled competitor: unradiolabeled peptide as competitor
Method: The radiolabeled GnRH and the cells were cultured at room temperature for 6 hours, and then washed with PBS (phosphate-buffered saline) several times to eliminate the unbound GnRH. Thereafter, the cells were isolated and radioactivity from the cells was measured using a γ-counter.

bfGnRHR-1 = test: Inositol phosphate (IP) production, GH3 cells expressing bfGnRHR-1; format: cell-based, bullfrog; details: for Log EC50: log of EC50 (negative values), concentration inducing half-maximal stimulation, 30 min
Source text: (§1) The GnRH receptor, a membrane protein connected with the G protein, activates the G protein when activated by a ligand, and the activated G protein activates phospholipase C and thereby the synthesis of inositol phosphate (IP), which is the second transmitter in cells, is increased. Based on this principle, the activity of a receptor can be investigated by measuring the amount of IP within cells. GH3 cell lines were obtained from the Cell Line Bank at the Cancer Research Center, Seoul National University College of Medicine, located in Seoul, Republic of Korea. The GH3 cell lines were infected with retroviruses comprising genes encoding […]-2, and bfGnRHR-3 which are bullfrog GnRH receptors, and rat GnRHR, and cell lines expressing each of these receptors were obtained. The GH3 cells expressing […]-3, and rat GnRHR were cultured on 12-well plates. After 24 hours, the cells were cultured again for 24 hours in a media containing no inositol, to which H^3-myoinositol was added. […] Thereafter, they were treated with GnRH having a suitable concentration, cultured at 37° C. for another 30 minutes, and then the media was eliminated. The cells were treated with 10 mM of ice-cold formic acid to terminate the reaction, and the cell extracts were mixed with Dowex anionic exchange resins. These resins were washed with distilled water, IP was extracted with 1 M ammonium formate/0.1 M formic acid, and cpm (count per minute) was determined. The GH3 cell lines were infected with retroviruses comprising genes encoding […]-2, and bfGnRHR-3 which are bullfrog GnRH receptors, and rat GnRHR, and cell lines expressing each of these receptors were obtained. […] In all the cell lines it was observed that when they were treated with GnRH and the agonists, IP was formed in a concentration-dependent manner.

bfGnRHR-3 [2] = test: Inositol phosphate (IP) production, GH3 cells expressing bfGnRHR-3; format: cell-based, bullfrog; details: log of EC50 (negative values), concentration inducing half-maximal stimulation, 30 min
Source text: as §1

bfGnRHR-2 = test: Inositol phosphate (IP) production, GH3 cells expressing bfGnRHR-2; format: cell-based, bullfrog; details: log of EC50 (negative values), concentration inducing half-maximal stimulation, 30 min
Source text: as §1

[3] = test system: luteinizing hormone and testosterone secretion; test: GnRH-2 agonist-induced serum LH and testosterone levels in male rat (radioimmunoassay); format: in vivo; details: 10 μg injected
Method: Example 3: GnRH-2 Agonist-induced serum LH and testosterone levels [D-Ala^6]GnRH-2 was dissolved in saline at a concentration of 100 μg/ml, and then 10 μg of [D-Ala^6]GnRH-2 was injected into the cervix of a male rat (Sprague Dawley rat having a weight of approximately 100 g). 1, 2, 4, and 8 hours after the injection, serum was obtained from the rat. The concentration of luteinizing hormone and testosterone present in the serum was measured by radioimmunoassay.

[4] = cells expressing rat GnRH receptor

## NC(=O)CNC(=O)[C@@H]1CCCN1C(=O)[C@H](Cc1ccc(O)cc1)NC(=O)[C@H](Cc1c[nH]c2ccccc12)NC(=O)CNC(=O)[C@H](Cc1c[nH]cn1)NC(=O)[C@H](CO)NC(=O)[C@H](Cc1c[nH]c2ccccc12)NC(=O)[C@H](Cc1c[nH]cn1)NC(=O)[C@@H]1CCC(=O)N1 [GnRH-2] ([pGlu]HWSHGWYPG-NH2)
Primate GnRH-2 receptor
  Log EC50: −8.39 ± 0.10
  Ratio of EC50 values based on EC50 value of GnRH-2: 1
  Emax (fold-induction): 11.74 ± 0.31 fold-induction
bfGnRHR-3 [1]
  Binding affinity (log IC50 value): −8.63 ± 0.14
Rat GnRHR
  sensitivity compared with GnRH-1: a sensitivity lower than 10-fold
TSU-Pri cells; I125-radiolabeled peptide, room temperature, 6 hours
  binding of radiolabeled ligand to TSU-Pri cells: binding with cells was observed
TSU-Pri cells
  reduction of radiolabeled GnRH-2 binding to TSU-Pri cells by unradiolabeled competitor: the binding was reduced
bfGnRHR-1
  Log EC50: −9.41 ± 0.13
bfGnRHR-3 [2]
  Log EC50: −9.51 ± 0.10
bfGnRHR-2
  Log EC50: −8.98 ± 0.14

## C[C@@H](NC(=O)[C@H](Cc1c[nH]cn1)NC(=O)[C@H](CO)NC(=O)[C@H](Cc1c[nH]c2ccccc12)NC(=O)[C@H](Cc1c[nH]cn1)NC(=O)[C@@H]1CCC(=O)N1)C(=O)N[C@@H](Cc1c[nH]c2ccccc12)C(=O)N[C@@H](Cc1ccc(O)cc1)C(=O)N1CCC[C@H]1C(=O)NCC(N)=O [[D-Ala^6]GnRH-2, p-Glu-His-Trp-Ser-His-D-Ala-Trp-Tyr-Pro-GlyNH2] ([pGlu]HWSH[dA]WYPG-NH2)
[3]; male Sprague Dawley rat about 100 g, serum 1, 2, 4, 8 hours
  serum luteinizing hormone (LH): an increase of luteinizing hormone (LH) was observed in only one hour
[3]; male rat
  time of serum testosterone peak after injection: 4 h
[3]; male rat, compared with before the injection
  serum testosterone: significantly high value even after 8 hours
Primate GnRH-2 receptor
  Log EC50: −8.81 ± 0.12
  Ratio of EC50 values based on EC50 value of GnRH-2: 0.38
  Emax (fold-induction): 11.84 ± 0.47 fold-induction
bfGnRHR-3 [1]
  Binding affinity (log IC50 value): −9.83 ± 0.14
Rat GnRHR; [4]
  fold higher sensitivity than GnRH-2: 5 fold
  fold lower sensitivity than GnRH-1: 3.5 fold
Rat GnRHR
  sensitivity compared with GnRH-1: a sensitivity lower than 10-fold
TSU-Pri cells
  reduction of radiolabeled GnRH-2 binding to TSU-Pri cells by unradiolabeled competitor: reduced in a concentration-dependent manner
bfGnRHR-1
  fold lower activating concentration than GnRH-2: ~8 fold
  Log EC50: −9.91 ± 0.13
bfGnRHR-3 [2]
  Log EC50: −9.89 ± 0.10
bfGnRHR-2
  Log EC50: −9.91 ± 0.19

## NC(=O)CNC(=O)[C@@H]1CCCN1C(=O)[C@H](Cc1ccc(O)cc1)NC(=O)[C@H](Cc1c[nH]c2ccccc12)NC(=O)[C@@H](Cc1c[nH]c2ccccc12)NC(=O)[C@H](Cc1c[nH]cn1)NC(=O)[C@H](CO)NC(=O)[C@H](Cc1c[nH]c2ccccc12)NC(=O)[C@H](Cc1c[nH]cn1)NC(=O)[C@@H]1CCC(=O)N1 [[D-Trp^6]GnRH-2] ([pGlu]HWSH[dW]WYPG-NH2)
Primate GnRH-2 receptor
  Log EC50: −8.31 ± 0.09
  fold lower effect than GnRH-2: ~1.2 fold
  Ratio of EC50 values based on EC50 value of GnRH-2: 1.20
  Emax (fold-induction): 11.20 ± 0.32 fold-induction
bfGnRHR-3 [1]
  Binding affinity (log IC50 value): −8.10 ± 0.11
bfGnRHR-1
  Log EC50: −9.40 ± 0.12
bfGnRHR-3 [2]
  Log EC50: −9.22 ± 0.11
bfGnRHR-2
  Log EC50: −9.21 ± 0.13
